{"source": "patent US20230295236A1", "about": "“COMPOUNDS FOR USE IN INFLAMMATORY CONDITIONS” (priority 2020, published 2023)", "key": {"[1]": {"test_system": "MT-2 cells"}, "[2]": {"test_system": "HIV-1 recombinant virus (NL4.3 Luc)", "type": "cell-based", "conditions": "MT-2 cells"}, "[3]": {"test_system": "HIV-1 recombinant virus (NL4.3 Luc)", "type": "cell-based", "conditions": "PBMCs"}, "[4]": {"test_system": "HCoV-229E", "type": "cell-based"}, "[5]": {"test_system": "Huh-7 cells (human hepatoma cell line)"}, "[6]": {"test_system": "IL6, IL8, IL1β and TNF-α secretion", "assay": "Plitidepsin pre-treatment of THP-1 NFκB luc cells before Resiquimod: cytokines", "type": "cell-based, human", "conditions": "1, 10 or 50 nM added 8 hours before Resiquimod 2.5 or 5 µg/mL; measured at 24 hours", "method": "(§1) In a further in vitro experiment, the effect of plitidepsin (APL) pre-treatment on THP-1 cells was studied. Using a THP-1 NFκB luc line, 1, 10 or 50 nM of APL or DMSO (0.2%) was added 8 hours before stimulus with Resiquimod (RQ) at 2.5 or 5 µg/mL. RQ is a TLR⅞ agonist and mimics ssRNA. At 24 hours the level of cytokines or cell viability was measured."}, "[7]": {"test_system": "THP-1 cells", "assay": "Plitidepsin pre-treatment of THP-1 NFκB luc cells before Resiquimod: cell viability", "type": "cell-based, human", "conditions": "1, 10 or 50 nM added 8 hours before Resiquimod 2.5 or 5 µg/mL; measured at 24 hours", "method": "as §1"}, "[8]": {"test_system": "TNFα", "assay": "Resiquimod-triggered TNFα in BALF of mice", "type": "in vivo", "conditions": "mice 1 mg/kg i.v. 1 hour before 50 µg/mouse intranasal resiquimod; 1 and 3 hours"}, "[9]": {"test_system": "alveolar macrophages", "assay": "LPS animal inflammation model: macrophages in bronchoalveolar lavage by flow cytometry", "type": "in vivo, mouse", "conditions": "mice 1 mg/kg single i.v., LPS 20 µg/kg i.p.", "from_the_text": "Three hours later, bronchoalveolar lavages were collected."}, "[10]": {"test_system": "SARS-CoV-2", "assay": "APLICOV-PC clinical study in patients hospitalised for COVID-19: efficacy", "type": "in vivo, human"}}, "note": "Where two headings read alike, the source gives them in different places. Numbered stars: 1 amine (or outer) side, 2 acyl side, 3 side chain; on linkers, the order of the positions; unused ones are H or OH. Bridge positions count the residues as written; N and C are the ends. Square brackets hold non-standard residues; d marks the D form. Peptide text beside a SMILES is read from it. * marks the point of attachment. Benzothiophen(2-yl)carbonyl = O=C(c1cc2ccccc2s1)*; X2 = CC[C@H](C)[C@@H](N[*:1])[C@@H](O)CC(=O)[*:2]; NMeY = CN[C@@H](Cc1ccc(O)cc1)C(=O)O; dNMeL = CN[C@H](CC(C)C)C(=O)O; Hiv = CC(C)[C@H](O)C(=O)O; Aib = CC(C)(N)C(=O)O"}
{"smiles": "CC[C@H](C)[C@H]1NC(=O)[C@@H](NC(=O)[C@@H](CC(C)C)NC)[C@@H](C)OC(=O)[C@H](Cc2ccc(OC)cc2)N(C)C(=O)[C@@H]2CCCN2C(=O)[C@H](CC(C)C)NC(=O)C(C)(C)NC(=O)C[C@@H]1O", "note": "[Compound 3] (H-[dNMeL]T[X2][Aib]LP[NMeY](Me); ester 2-C)", "values": [{"measurement": "Toxic concentrations (not reached at)", "setting": "[1]", "value": "> 57.3", "unit": "µM"}]}
{"smiles": "CC[C@H](C)[C@H]1NC(=O)[C@@H](NC(=O)[C@H](CC(C)C)N(C)C(=O)[C@@H]2CCCN2C(=O)C(C)=O)[C@@H](C)OC(=O)[C@H](Cc2ccc(OC)cc2)N(C)C(=O)[C@@H]2CCCN2C(=O)[C@H](CC(C)C)NC(=O)[C@@H](C)C(=O)[C@H](C(C)C)OC(=O)C[C@@H]1O", "note": "[Compound 8]", "values": [{"measurement": "Antiviral activity", "setting": "[2]", "value": "antiviral activity"}, {"measurement": "Antiviral activity", "setting": "[3]", "value": "antiviral activity"}]}
{"smiles": "CC[C@H](C)[C@H]1NC(=O)[C@@H](NC(=O)[C@@H](CC(C)C)N(C)C(=O)[C@@H]2CCCN2C(=O)[C@H](C)NC(=O)[C@@H](Cc2ccccc2)NC(=O)OC(C)(C)C)[C@@H](C)OC(=O)[C@H](Cc2ccc(OC)cc2)N(C)C(=O)[C@@H]2CCCN2C(=O)[C@H](CC(C)C)NC(=O)[C@@H](C)C(=O)[C@H](C(C)C)OC(=O)C[C@@H]1O", "note": "[Compound 9]", "values": [{"measurement": "Antiviral activity (GFP fluorescence images)", "setting": "[4]", "value": "remarkable antiviral properties are seen across all concentrations"}, {"measurement": "Cell growth / viability (DAPI fluorescence images)", "setting": "[5]", "value": "cells remain viable at all concentrations"}]}
{"smiles": "CC[C@H](C)[C@H]1NC(=O)[C@@H](NC(=O)[C@@H](CC(C)C)N(C)C(=O)c2cc3ccccc3s2)[C@@H](C)OC(=O)[C@H](Cc2ccc(OC)cc2)N(C)C(=O)[C@@H]2CCCN2C(=O)[C@H](CC(C)C)NC(=O)[C@H](C(C)C)OC(=O)C[C@@H]1O", "note": "[Compound 10] ({Benzothiophen(2-yl)carbonyl}-[dNMeL]T[X2][Hiv]LP[NMeY](Me); ester 2-C)", "values": [{"measurement": "Antiviral activity (GFP fluorescence images)", "setting": "[4]", "value": "remarkable antiviral properties are seen across all concentrations"}, {"measurement": "Cell growth / viability (DAPI fluorescence images)", "setting": "[5]", "value": "cells remain viable at all concentrations"}]}
{"smiles": "CC[C@H](C)[C@H]1NC(=O)[C@@H](NC(=O)[C@H](CC(C)C)N(C)C(=O)[C@@H]2CCCN2C(=O)C(C)=O)[C@@H](C)OC(=O)[C@H](Cc2ccc(OC)cc2)N(C)C(=O)[C@@H]2CCCN2C(=O)[C@H](CC(C)C)NC(=O)[C@@H](C)C(=O)[C@H](C(C)C)OC(=O)C[C@@H]1O", "note": "[PLD, Plitidepsin]", "values": [{"measurement": "Secretion of IL6, IL8, IL1β and TNF-α induced by RQ", "setting": "[6]", "value": "inhibited secretion of the pro-inflammatory cytokines: IL6, IL8, IL1β and TNF-α"}, {"measurement": "Cell viability", "setting": "[7]", "value": "does not decrease viability over the untreated control"}, {"measurement": "Resiquimod-induced TNFα production in BALF", "setting": "[8]", "value": "prevented the increased production of TNFα"}, {"measurement": "Macrophages in bronchoalveolar lavage", "setting": "[9]", "value": "reduces the number of macrophages in BAL"}, {"measurement": "Antiviral activity (GFP fluorescence images)", "setting": "[4]", "value": "remarkable antiviral properties are seen across all concentrations"}, {"measurement": "Median time for PCR conversion", "setting": "[10]", "value": 7, "unit": "days"}, {"measurement": "Evaluable patients requiring post PLD specific anti COVID 19 therapy", "setting": "[10]; interim results", "value": "2 out of 8"}, {"measurement": "Evaluable patients with disease control and major clinical improvements", "setting": "[10]; interim results", "value": "6 out of 8"}, {"measurement": "Evaluable patients with PCR conversion to negative", "setting": "[10]; interim results, 1.5 mg and 2 mg cohorts", "value": "6 out of 8"}, {"measurement": "Deaths on study", "setting": "[10]; interim results, 9 patients", "value": "no deaths on study"}, {"measurement": "Need for mechanical ventilation or ICU admission", "setting": "[10]; interim results, 9 patients", "value": "none of the patients required mechanical ventilation or ICU admission"}, {"measurement": "Median time to hospital discharge", "setting": "[10]; interim results, range (7 -19)", "value": 8, "unit": "days"}, {"measurement": "Cell growth / viability (DAPI fluorescence images)", "setting": "[5]", "value": "cells remain viable at all concentrations"}]}
